System: CD8+ T cells
Test: IFN-gamma ELISpot analysis of T cells stimulated with neopeptide-loaded autologous CD40-activated B cells
Format: cell-based, human
Conditions: T cells from HLA-A0201-positive healthy proband, weekly stimulation

| Sequence | reactivity (IFN-gamma ELISpot) (day 28) | reactivity (IFN-gamma ELISpot) (day 35) |
| --- | --- | --- |
| SLYKFSPFPL [peptide #16, HLA-A0201-restricted neopeptide encoded by mutated cMNR] | 1760 specific cells/1,000,000 cells | – |
| TLSPGWSAV [peptide #21, HLA-A0201-restricted neopeptide encoded by mutated cMNR] | – | 733 specific cells/1,000,000 cells |
| FLSASHFLL [peptide #15, HLA-A0201-restricted neopeptide encoded by mutated cMNR] | – | 1123 specific cells/1,000,000 cells |

Source: US20040265803A1, “Genes and their genetic products pertinent to microsatellite instable (msi+) tumours” (priority 2000, published 2004)
